From US8268865B2, “Quaternary alkyl ammonium bacterial efflux pump inhibitors and therapeutic uses thereof” (Rempex Pharmaceuticals, Inc., priority 2007, dated 2012) come the findings set out here.

Like-named read-outs stand apart in the source and are kept apart here.

Series [1] is described as follows: Rat serum pharmacokinetics after 1.5-hour IV infusion. It counts as in vivo. Particulars: for clearance: read-out: Clearance (free drug clearance) (converted). As to the method: In the experiment depicted in Table 2, rat serum pharmacokinetics of compounds selected inhibitor compounds was evaluated after 1.5-hour IV infusion of 1.5 ml solution of corresponding efflux pump inhibitor in 0.9% saline. Depending on the concentration used the total infused dose was 10 or 20 mg/kg. A two-compartment model was used to fit the data and calculate PK parameters.

Series [2] has as its system P. aeruginosa strain PAM1723 overexpressing MexAB-OprM. The series can be described thus: Checkerboard assay: potentiation of in vitro antibacterial activity of levofloxacin by efflux pump inhibitors. In kind it is cell-based. Particulars: for MPC8: lowest inhibitor concentration giving antibacterial activity with levofloxacin at 1/8 of its MIC; for MPC8 / MPC32: PAM1723, MHB, 20 h at 35° C.; for MPC32: lowest inhibitor concentration giving antibacterial activity with levofloxacin at 1/32 of its MIC. As to the method: EPI activity was recorded as concentration of an EPI compound that is necessary to increase susceptibility to levofloxacin of the strain of P. aeruginosa, PAM1723, overexpressing the MexAB-OprM efflux pump eight-fold. The levofloxacin potentiating activity of the test compounds was assessed by the checkerboard assay (Antimicrobial Combinations, Antibiotics in Laboratory Medicine, Ed. Victor Lorian, M.D., Fourth edition, 1996, pp 333-338, which is incorporated herein by reference in its entirety) using a broth microdilution method performed as recommended by the NCCLS (National Committee for Clinical Laboratory Standards (NCCLS), 1997, Methods for Dilution of Antimicrobial Susceptibility Tests for Bacteria That Grow Aerobically, Fourth Edition; Approved Standard. NCCLS Document M7-A4, Vol 17 No. 2, which is incorporated herein by reference in its entirety). In this assay, multiple dilutions of two drugs, namely an EPI and levofloxacin, were tested, alone and in combination, at concentrations equal to, above and below their respective minimal inhibitory concentrations (MICs). All EPI compounds were readily soluble in water and stock solutions were prepared at a final concentration of 10 mg/ml. Stock solutions were further diluted, according to the needs of the particular assay, in Mueller Hinton Broth (MHB). Stock solution was stored at −80° C.
The checkerboard assay was performed in microtiter plates. Levofloxacin was diluted in the x-axis, each column containing a single concentration of levofloxacin. EPIs were diluted in the y-axis, each row containing a single concentration of an EPI. The result of these manipulations was that each well of the microtiter plate contained a unique combination of concentrations of the two agents. The assay was performed in MHB with a final bacterial inoculum of 5×105 CFU/ml (from an early-log phase culture). Microtiter plates were incubated during 20 h at 35° C. and were read using a microtiterplate reader (Molecular Devices) at 650 nm as well as visual observation using a microtiter plate-reading mirror.
In the experiment depicted in Table 1, potentiating activities of selected inhibitors are reported as Minimum Potentiating Concentration MPC8 values (or MPC32) which correspond to the lowest concentration of the inhibitor required to achieve antibacterial activity in combination with the concentration of levofloxacin equal to ⅛ (or 1/32) of the levofloxacin concentration required to achieve the same antibacterial effect alone (MIC of levofloxacin).

Where [3] appears, read: rat serum, 1.5-hour IV infusion, dose 20 mg/kg, two-compartment model.
The mark [4] stands for this setting: rat serum, 1.5-hour IV infusion, dose 20 mg/kg, read-out: Cmax.
Where [5] appears, read: rat serum, 1.5-hour IV infusion, dose 10 mg/kg, two-compartment model.
The mark [6] stands for this setting: rat serum, 1.5-hour IV infusion, dose 10 mg/kg, read-out: Cmax.
Setting [7] is: rat, IV infusion, comparison among compounds of Table 2.

One may read the clearance as the volume of plasma or blood freed of the substance per unit of time. As a reminder, the Cmax is the maximum level reached in the sampled fluid or tissue. As to `C[N+](C)(CCN)CCC[C@H](N)C(=O)N[C@H](CCc1ccccc1)C(=O)Nc1ccc(F)c(F)c1F` [Compound 5, [(4S)-4-azaniumyl-4-{[(1R)-3-phenyl-1-[(2,3,4-trifluorophenyl)carbamoyl]propyl]carbamoyl}butyl](2-azaniumylethyl)dimethylazanium trichloride], in series [1] (setting [3]), the clearance was 20.5 mL/min/kg. The Cmax in series [1] (setting [4]) came out at 19600 ng/mL.
With `C[N+](CCN)(CCN)CCC[C@H](N)C(=O)N[C@@H](Cc1ccc(C(F)(F)F)cc1)C(=O)Nc1cnc2ccccc2c1` [Compound 11, 3-[(2R)-2-[(4R)-1-N,1-N-bis(2-azaniumylethyl)-4-formamido-1-N-methylbutane-1,4-bis(aminium)]-3-[4-(trifluoromethyl)phenyl]propanamido]quinolin-1-ium pentachloride], the clearance in series [1] (setting [5]) is 47.8 mL/min/kg. The maximum concentration (Cmax) in series [1] (setting [6]) was 7300 ng/mL.
For the compound `C[N+](CCN)(CCN)CCC[C@H](N)C(=O)N[C@H](CCc1ccccc1)C(=O)Nc1cnc2ccccc2c1` [Compound 27, 3-[(2R)-2-[(4S)-1-N,1-N-bis(2-azaniumylethyl)-4-formamido-1-N-methylbutane-1,4-bis(aminium)]-4-phenylbutanamido]quinolin-1-ium pentachloride], the clearance in series [1] (setting [3]) was 5.83 mL/min/kg. For the same compound, the Cmax in series [1] (setting [4]) amounted to 54600 ng/mL. Further, the “serum PK profile (in words)” value in series [1] (setting [7]) is “best serum PK profiles”.
Turning to `C[N+](CCN)(CCN)CCC[C@H](N)C(=O)N[C@H](CCc1ccc(C(F)(F)F)cc1)C(=O)Nc1cnc2ccccc2c1` [Compound 33, 3-[(2R)-2-[(4S)-1-N,1-N-bis(2-azaniumylethyl)-4-formamido-1-N-methylbutane-1,4-bis(aminium)]-4-[4-(trifluoromethyl)phenyl]butanamido]quinolin-1-ium pentachloride], the clearance in series [1] (setting [3]) was 16.7 mL/min/kg. For the same compound, the Cmax in series [1] (setting [4]) was 63000 ng/mL.
Regarding `C[N+](CCN)(CCN)CCC[C@H](N)C(=O)N[C@@H](CCc1ccccc1)C(=O)Nc1cnc2ccccc2c1.Cl.Cl.[Cl-]` [Compound 29, 3-[(2S)-2-[(4S)-1-N,1-N-bis(2-azaniumylethyl)-4-formamido-1-N-methylbutane-1,4-bis(aminium)]-4-phenylbutanamido]quinolin-1-ium pentachloride], in series [1] (setting [5]), the clearance is 14.2 mL/min/kg. Besides, the Cmax in series [1] (setting [6]) is 25600 ng/mL.
On to `C[C@@H](N)C(=O)N[C@@H](CCC[N+](C)(CCN)CCN)C(=O)N[C@@H](Cc1ccc(C(F)(F)F)cc1)C(=O)Nc1cnc2ccccc2c1` [Compound 44, 3-[(2S)-2-[(4S)—N,N-bis(2-azaniumylethyl)-4-formamido-4-[(1R)-1-formamidoethan-1-aminium]-N-methylbutan-1-aminium]-3-[4-(trifluoromethyl)phenyl]propanamido]quinolin-1-ium pentachloride], for which, in series [1] (setting [3]), the clearance is 10.8 mL/min/kg. For the same compound, the Cmax in series [1] (setting [4]) came to 40200 ng/mL. Besides, the “serum PK profile (in words)” value in series [1] (setting [7]) is on record as “best serum PK profiles”.
On to `C[N+](C)(CCN)CCC[C@H](N)C(=O)N[C@H](CCc1ccccc1)C(=O)Nc1cnc2ccccc2c1` [Compound 4, 3-[(2S)-2-[(4R)-1-N-(2-azaniumylethyl)-4-formamido-1-N,1-N-dimethylbutane-1,4-bis(aminium)]-4-phenylbutanamido]quinolin-1-ium tetrachloride], for which the clearance in series [1] (setting [5]) was 21.5 mL/min/kg. Moreover, the Cmax in series [1] (setting [6]) is 13400 ng/mL.
In series [1] (rat serum, 1.5-hour IV infusion, dose 20 mg/kg), “3-{2-[(4S)-1-N,1-N-bis(2-azaniumylethyl)-4-(N-methylformamido)-1-N-(prop-2-en-1-yl)butane-1,4-bis(aminium)]-3-[4-(trifluoromethyl)phenyl]propanamido}quinolin-1-ium pentachloride [Compound 92]” gave a Cmax of 18300 ng/mL. Also, in series [1] (setting [3]), the “Clearance (free drug clearance)” value was determined as 26.5 mL/min/kg. Further, in series [2], the MPC8 was found to be 0.312 µg/mL and the MPC32 was found to be 0.625 µg/mL.
Take `C[N+](CCN)(CCN)CCC[C@H](N)C(=O)N[C@@H](CC1CCCCC1)C(=O)Nc1cnc2ccccc2c1.Cl.Cl.Cl.Cl.[Cl-]` [Compound 25, 3-[(2S)-2-[(4S)-1-N,1-N-bis(2-azaniumylethyl)-4-formamido-1-N-methylbutane-1,4-bis(aminium)]-3-cyclohexylpropanamido]quinolin-1-ium pentachloride]: the clearance in series [1] (setting [5]) is 16.7 mL/min/kg. Besides, the Cmax in series [1] (setting [6]) was 13000 ng/mL.
Consider “Mixture of 3-[(2S,3R)-2-[(4S)-1-N,1-N-bis(2-azaniumylethyl)-4-formamido-1-N-methylbutane-1,4-bis(aminium)]-3-hydroxy-3-[4-(trifluoromethyl)phenyl]propanamido]quinolin-1-ium pentachloride 15a and 3-[(2R,3S)-2-[(4S)-1-N,1-N-bis(2-azaniumylethyl)-4-formamido-1-N-methylbutane-1,4-bis(aminium)]-3-hydroxy-3-[4-(trifluoromethyl)phenyl]propanamido]quinolin-1-ium pentachloride 15b [Compound 15]”, for which, in series [2], the MPC8 came to 0.312 µg/mL and the MPC32 came out at 0.625 µg/mL.
Take `C[N+](CCN)(CCN)CCC[C@H](N)C(=O)N[C@H](Cc1ccc(C(F)(F)F)cc1)C(=O)Nc1cnc2ccccc2c1` [Compound 10, 3-[(2R)-2-[(4S)-1-N,1-N-bis(2-azaniumylethyl)-4-formamido-1-N-methylbutane-1,4-bis(aminium)]-3-[4-(trifluoromethyl)phenyl]propanamido]quinolin-1-ium pentachloride]: in series [1] (setting [5]), the clearance was 5.17 mL/min/kg. Besides, the Cmax in series [1] (setting [6]) was found to be 30600 ng/mL. For the same compound, in series [1] (setting [7]), the “free drug clearance (in words)” value is “lowest free drug clearance” and the “serum PK profile (in words)” value is “best serum PK profiles”. In series [2] (comparison among tested compounds), the “efflux pump inhibitory activity (in words)” value was “one of the best efflux pump inhibitory activities”.
Consider “3-[(2R)-2-[(4S)-1-N,1-N-bis(2-azaniumylethyl)-4-formamido-1-N-methylbutane-1,4-bis(aminium)]-4-phenylbutanamido]-1-{[4-(trifluoromethyl)phenyl]methyl}quinolin-1-ium pentachloride [Compound 53]”, for which, in series [2], the MPC8 worked out at 2.5 µg/mL and the MPC32 was determined as 5 µg/mL.
